From patent US20260297542A1, “HERBICIDE RESISTANT PLANTS” (SYNGENTA CROP PROTECTION AG, priority 2023, published 2026) come the findings set out here.

As a reminder, the inhibition is how much of the control response was suppressed.

Residue numbers refer to the chain shown, from its start.

Assay [1] concerns the target T1, AtPPO1 S305L G404A L479N (SEQ ID NO.137) (Arabidopsis thaliana, UniProt P55826, G404A/L479N/S305L).
T1 construct: made in house; host or cells: E. coli BL21 (DE3) hemG, crude extract
T1 sequence (P55826 35-537 S305L/G404A/L479N): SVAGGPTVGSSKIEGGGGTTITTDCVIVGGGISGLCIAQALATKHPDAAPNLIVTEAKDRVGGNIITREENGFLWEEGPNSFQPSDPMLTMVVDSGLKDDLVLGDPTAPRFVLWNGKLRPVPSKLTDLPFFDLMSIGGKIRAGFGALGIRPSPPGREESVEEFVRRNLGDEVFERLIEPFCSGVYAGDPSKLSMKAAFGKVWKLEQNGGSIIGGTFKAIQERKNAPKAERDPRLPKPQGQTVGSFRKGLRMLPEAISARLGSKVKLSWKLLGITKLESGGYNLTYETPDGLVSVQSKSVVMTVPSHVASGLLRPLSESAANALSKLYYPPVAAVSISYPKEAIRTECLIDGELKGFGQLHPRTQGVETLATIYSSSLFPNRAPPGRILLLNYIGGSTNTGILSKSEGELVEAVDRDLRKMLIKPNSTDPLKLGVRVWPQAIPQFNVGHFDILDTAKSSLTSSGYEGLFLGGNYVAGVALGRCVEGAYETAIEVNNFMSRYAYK
The assay is described as follows: fluorescent Protoporphyrinogen Oxidase assay, crude extract. The assay is classed as biochemical. The settings on record: read-out: percentage inhibition. As for the experimental part: (§1) A pET24 plasmid containing a DNA sequence encoding each identified variant mutant of AtPPO1 derived from Arabidopsis thaliana, codon-optimised for expression in E. coli, and under control of a T7 promoter, was synthesised by Twist Bioscience. This plasmid was expressed in E. coli BL21 (DE3) hemG with 50 μg/mL kanamycin and 25 μg/mL chloramphenicol selection. Overnight cultures grown at 37° C. were used to inoculate 150 ml AIM (AIM-Terrific Broth Base including Trace elements, Formedium) in 500 ml shake flasks at a ratio of 1:100. Cultures were grown at 37° C., 200 rpm for 3 hours and then overnight at 26° C. Cells were harvested by 4° C. centrifugation for 20 minutes at 600 rpm. Cells were stored at −80° C. until extraction. 0.5-1 g of cell pellet from was thawed and resuspended in ratio of 1:1 in lysis buffer (20 mM Tris pH8, 500 mM sodium chloride, 10% glycerol, 1× complete Protease EDTA-free Inhibitor Tablet (Roche)). The resuspension was sonicated at 50% using 10-20 cycles of 10 seconds, 20 seconds off. After sonication Triton X-100 was added to the lysates at a final concentration of 0.5%. The lysates were centrifuged at 13.00 rpm for 10 min at 4° C. The crude extracts (i.e, supernatants) were stored at −80° C. Protein concentration was measured and calculated using the absorbance at 280 nm. Extracts were diluted 1 in 4 and 10 uL was analysed by SDS PAGE.
(§2) Variant crude extracts were assayed in a fluorescent Protoporphyrinogen Oxidase assay in black 384 well plates with a clear bottom. The total volume of the reaction mixture was 100 ul and contained 100 mM K2HPO4 pH7.2, 1 mM Na2EDTA, 5 mM DTT, 20% glycerol (v/v), 0.025% Tween 20 (v/v). Reactions were started with addition of 1 uM protoporphyrinogen IX final assay concentration. Fluorescence was monitored over 30 min using a Tecan plate reader with an excitation wavelength of 405 nm, emission wavelength of 635 nm, gain of 90 and 15 flashes. 10 ul of 3-fold serial dilution of crude extract in 100 mM K2HPO4 pH7.2, 1 mM Na2EDTA, 5 mM DTT, 20% glycerol (v/v), 0.05% Tween 20 (v/v) was tested in the assay against 1% DMSO and 100 ppm herbicide B to determine the correct amount of crude extract to add to the assay to observe activity. 10 ul of the appropriate crude extract dilution was then tested in the fluorescent Protoporphyrinogen Oxidase assay against DMSO and 10-fold dose response of each compound (herbicides A to E) with a top rate of 100 ppm.
(§3) The percentage inhibition was calculated as the activity in the presence of one of four concentrations of each herbicide compound A to E (note that the compounds labelled as A to E are identified hereinabove in the relevant section of the description) as a percentage of the enzyme activity in DMSO (Table 5).

The target of assay [2] is T2, AtPPO1 S305L G404A Y426V T431R L479N (SEQ ID NO.127) (Arabidopsis thaliana, UniProt P55826, G404A/L479N/S305L/T431R/Y426V).
T2 construct: made in house; host or cells: E. coli BL21 (DE3) hemG, crude extract
T2 sequence (P55826 35-537 S305L/G404A/Y426V/T431R/L479N): T1 sequence (P55826 35-537 S305L/G404A/L479N) with Y392V, T397R
Described as above. The assay is classed as biochemical. The settings on record: read-out: percentage inhibition. On the procedure:
as §1, §2, §3

`C#CCN1C(=O)C(F)(F)Oc2cc(F)c(-n3c(=O)n(C)c(=S)n(C)c3=O)cc21` [Herbicide B, trifludimoxazin]: in assay [1], the inhibition at 0.1 ppm was 77%, the inhibition at 1 ppm amounted to 98%, the inhibition at 10 ppm stood at 100% and the inhibition at 100 ppm came to 100%. Besides, in assay [2], the inhibition at 0.1 ppm is 91%, the inhibition at 1 ppm stood at 100%, the inhibition at 10 ppm was 100% and the inhibition at 100 ppm is 100%.

`CCOC(=O)COc1ncccc1Oc1cc(-n2c(=O)cc(C(F)(F)F)n(C)c2=O)c(F)cc1Cl` [Herbicide A, epyrifenacil]: in assay [1], the inhibition at 0.1 ppm amounted to 24%, the inhibition at 1 ppm came to 93%, the inhibition at 10 ppm was found to be 100% and the inhibition at 100 ppm turned out to be 100%. In assay [2], the inhibition at 0.1 ppm was 9%, the inhibition at 1 ppm was 45%, the inhibition at 10 ppm came to 69% and the inhibition at 100 ppm turned out to be 88%.

As to `CCOC(=O)[C@]1(C)CC(c2cc(-n3c(=O)n(C)c(=S)n(C)c3=O)c(F)cc2Cl)=NO1` [Herbicide D, ethyl (5S)-3-[2-chloro-5-(3,5-dimethyl-2,6-dioxo-4-thioxo-1,3,5-triazinan-1-yl)-4-fluoro-phenyl]-5-methyl-4H-isoxazole-5-carboxylate], in assay [1], the inhibition at 0.1 ppm turned out to be 12%, the inhibition at 1 ppm is 58%, the inhibition at 10 ppm is 98% and the inhibition at 100 ppm turned out to be 100%. In assay [2], the inhibition at 0.1 ppm came out at 13%, the inhibition at 1 ppm was 40%, the inhibition at 10 ppm worked out at 75% and the inhibition at 100 ppm came to 92%.

In the case of `CC(C)N(C)S(=O)(=O)NC(=O)c1cc(-n2c(=O)cc(C(F)(F)F)n(C)c2=O)c(F)cc1Cl` [Herbicide E, saflufenacil], in assay [1], the inhibition at 0.1 ppm is 22%, the inhibition at 1 ppm was determined as 66%, the inhibition at 10 ppm worked out at 100% and the inhibition at 100 ppm was 96%. In assay [2], the inhibition at 0.1 ppm came to 11%, the inhibition at 1 ppm stood at 48%, the inhibition at 10 ppm came out at 75% and the inhibition at 100 ppm amounted to 92%.

In the case of `CCOC(=O)C1(C)CC(c2cc(-n3c(=O)cc(C(F)(F)F)n(C)c3=O)c(F)cc2Cl)=NO1` (stereo not shown) [Herbicide C, 3-(2-chloro-4-fluoro-5-(3-methyl-2,6-dioxo-4-trifluoromethyl-3,6-dihydropyrimidin-1(2H)-yl)phenyl)-5-methyl-4,5-dihydroisoxazole-5-carboxylic acid ethyl ester], in assay [1], the inhibition at 0.1 ppm came out at 26%, the inhibition at 1 ppm was found to be 90%, the inhibition at 10 ppm was determined as 100% and the inhibition at 100 ppm turned out to be 100%. Also, in assay [2], the inhibition at 0.1 ppm turned out to be 47%, the inhibition at 1 ppm turned out to be 57%, the inhibition at 10 ppm came to 83% and the inhibition at 100 ppm came out at 96%.
